# In US6281354A, “Analogs of duocarmycin and cc-1065” (The Scripps Research Institute, priority 1999, dated 2001):
# Like-named read-outs stand apart in the source and are kept apart here.
# What was measured:
# [1] = system: w794 DNA; assay: DNA alkylation (thermal strand cleavage, PAGE) within w794 DNA; format: biochemical, SV40
# [2] = system: w794 DNA; assay: Relative rates of DNA alkylation for (+)-1, 53 and 54 at the w794 5'-AATTA site; format: biochemical, SV40; details: for concentration dependence of the rate of DNA alkylation: 10^-4 -10^-6 M
# Protocol: Modifications in the Trimethoxyindole Subunit: Role of the Methoxy Substituents. DNA alkylation by the natural enantiomers of 53-56 were compared with that of 1 in w794 DNA.
# Relative Rates of DNA Alkylation for (+)-1, 53, and 54. Following the procedure detailed above, Eppendorf tubes containing 5' end-labeled w794 DNA (9 μL) in TE buffer (pH 7.5) were treated with (+)-duocarmnycin SA, 53, or 54 (1 μL, 10^-5 M in DMSO). […] The solutions were mixed and incubated at 25° C. for 1, 3, 6, 12, 24, 48, and 72 h, respectively. Subsequent isolation of the alkylated DNA by EtOH precipitation, resuspension in TE buffer (10 μL, pH 7.5), thermolysis (30 min, 100° C.), concurrent PAGE, and autoradiography were conducted as detailed above. The relative rate for the alkylation at the 5'-AATTA site was derived from the slopes of the plots of percent integrated optical density (IOD) of the high affinity alkylation site cleavage bands versus time.
# [3] = system: duplex DNA (w794, w836, c988, c820, c1346); format: biochemical, SV40; details: for sequence preference at the alkylation site: consensus alkylation sequence; for alkylation of individual three-base sequences: 5'-TTA or 5'-ATA
# [4] = system: w836 DNA; assay: DNA alkylation sites and relative rates within the six-base A sequence (5'-AAAAAA) of w836 DNA; format: biochemical, SV40; details: for alkylated adenines within six-base A-rich sequence of w836 DNA / AT-rich binding site covered in w836 DNA: 5'-AAAAAA
# [5] = system: w794 DNA; details: pH 7.5, earlier studies; cited from earlier work
# [6] = In vitro cytotoxic activity; details: for cytotoxic potency, effect of terminal N^2 substituent (18, 23, 24 compared): natural and unnatural enantiomers
# [7] = natural enantiomers, 25° C., 24 h
# [8] = 5×10^-6 M agent (so in the source), 25° C., w836 5'-AAAAAA
structure (smiles),measurement,setting,value
"COC(=O)c1cc2c([nH]1)C(=O)C=C1N(C(=O)c3cc4ccccc4[nH]3)CC3CC123 (single isomer, unassigned) [compound 53, Methyl 2-[(Indol-2-yl)carbonyl]-1,2,8,8a-tetrahydrocyclopropa[c]pyrrolo[3,2-e]indol-4-one-6-carboxylate]",less effective at DNA alkylation than duocarmycin SA,[1]; (+) enantiomer,6-10 ×
same,less efficient DNA alkylation than 1,[1]; [7],20 ×
same,concentration dependence of the rate of DNA alkylation,[2],independent of agent concentration
"COC(=O)c1cc2c([nH]1)C(=O)C=C1N(C(=O)c3cc4cc(OC)ccc4[nH]3)CC3CC123 (single isomer, unassigned) [compound 54, Methyl 2-[(5-Methoxyindol-2-yl)carbonyl]-1,2,8,8a-tetrahydrocyclopropa[c]pyrrolo[3,2-e]indol-4-one-6-carboxylate]","DNA alkylation compared with duocarmycin SA (1), in words",[1]; [7],essentially indistinguishable from 1
same,concentration dependence of the rate of DNA alkylation,[2],independent of agent concentration
same,relative rate of DNA alkylation κrel versus 53,"[2]; 10^-5 M, 25° C., 1-72 h, 5'-d(AATTA)",18-33
"COC(=O)c1cc2c([nH]1)C(=O)C=C1N(C(=O)c3cc4ccc(OC)cc4[nH]3)CC3CC123 (single isomer, unassigned) [compound 55, Methyl 2-[(6-Methoxyindol-2-yl)carbonyl]-1,2,8,8a-tetrahydrocyclopropa[c]-pyrrolo[3,2-e]indol-4-one-6-carboxylate]",less efficient DNA alkylation than 1,[1]; [7],5-10 ×
"COC(=O)c1cc2c([nH]1)C(=O)C=C1N(C(=O)c3cc4cccc(OC)c4[nH]3)CC3CC123 (single isomer, unassigned) [compound 56, Methyl 2-[(7-Methoxyindol-2-yl)carbonyl]-1,2,8,8a-tetrahydrocyclopropa[c]pyrrolo[3,2-e]indol-4-one-6-carboxylate]",less efficient DNA alkylation than 1,[1]; [7],5-10 ×
"COC(=O)c1cc2c3c(ccc2[nH]1)N(C(=O)c1cc2c([nH]1)C(=O)C=C1N(C(=O)c4cc5c6c(ccc5[nH]4)N(C(N)=O)CC6)CC4CC124)CC3 (single isomer, unassigned) [ent-(-)-30]",sequence preference at the alkylation site,[3],5'-AAA>5'-AAT≥5'TAA>5 TAT
same,alkylated adenines within six-base A-rich sequence of w836 DNA,[4],alkylated those central to the sequence
"COC(=O)c1cc2c([nH]1)C(=O)C=C1N(C(=O)c3cc4c5c(ccc4[nH]3)N(C(=O)c3cc4c6c(ccc4[nH]3)N(C(N)=O)CC6)CC5)CC3CC123 (single isomer, unassigned) [ent-(-)-DSA-CDPI2]",AT-rich adenine N3 alkylation selectivity (size of site),[3],5 base-pair
same,high affinity alkylation site in w794 DNA,[1],5'-AATTT
same,high affinity alkylation site in w794 DNA,[1]; listed as (-)-DSA-CDPI2,5'-AATTT
same,AT-rich binding site covered in w836 DNA,[4],5 base-pair
same,alkylated adenines within six-base A-rich sequence of w836 DNA,[4],5' terminal adenines
same,time required to approach the same level of DNA alkylation as (+)-DSA-CDPI2,"[4]; 5×10^6 M agent (so in the source), 25° C., w836 5'-AAAAAA",6 h
"COC(=O)c1cc2c3c(ccc2[nH]1)N(C(=O)c1cc2c([nH]1)C(=O)C=C1N(C(=O)c4cc5c6c(ccc5[nH]4)N(C(N)=O)CC6)CC4CC124)CC3 (single isomer, unassigned; (+)) [(+)-30]",AT-rich adenine N3 alkylation selectivity (size of site),[3],5 base-pair
same,sequence preference at the alkylation site,[3],5'-AAA>5'-AAT≥5'TAA>5 TAT
same,alkylated adenines within six-base A-rich sequence of w836 DNA,[4],alkylated those central to the sequence
"COC(=O)c1cc2c([nH]1)C(=O)C=C1N(C(=O)c3cc4c5c(ccc4[nH]3)N(C(N)=O)CC5)CC3CC123 (single isomer, unassigned; (+)) [(+)-DSA-CDPI1]",alkylation of the minor w794 site (5'-CAAAG),[1],prominently alkylates
same,concentration required at minor site (5'-CAAAG) relative to major 5'-AATTA site,[1],10 x
"COC(=O)c1cc2c([nH]1)C(=O)C=C1N(C(=O)c3cc4c5c(ccc4[nH]3)N(C(=O)c3cc4c6c(ccc4[nH]3)N(C(N)=O)CC6)CC5)CC3CC123 (single isomer, unassigned; (+)) [(+)-DSA-CDPI2]",AT-rich adenine N3 alkylation selectivity (size of site),[3],5 base-pair
same,alkylation of individual three-base sequences,[3],unusually effective alkylation of 5'-TTA
same,sequence preference at the alkylation site,[3],5'-AAA>5'-TTA>5'-TAA≥5'-ATA
same,alkylation of the minor w794 site (5'-CAAAG),[1],failed to alkylate
same,high affinity alkylation site in w794 DNA,[1],5'-AATTA
same,AT-rich binding site covered in w836 DNA,[4],5 base-pair
same,alkylated adenines within six-base A-rich sequence of w836 DNA,[4],only the 3' adenines
same,time after which extensive DNA alkylation is exhibited,[4]; [8],1 to 5 min
COC(=O)c1cc2c3c(ccc2[nH]1)N(C(=O)c1cc2c4c(ccc2[nH]1)N(C(=O)c1cc2c([nH]1)C(=O)C=C1N(C(=O)OC(C)(C)C)C[C@H]5C[C@]125)CC4)CC3 [(+)-CDPI2 -DSA],AT-rich adenine N3 alkylation selectivity (size of site),[3],5 base-pair
same,sequence preference at the alkylation site,[3],5'-AAA>5'-AAT≥5'-TAA>5'-TAT
same,alkylation at the natural-enantiomer high affinity site (5'-AATTA),[1],without detectable alkylation
same,high affinity alkylation site in w794 DNA,[1],5'-AATTT
COc1cc2cc(C(=O)N3CC4CC45C3=CC(=O)c3ccccc35)[nH]c2c(OC)c1OC (stereo not shown) [CBI-TMI],relative rate of DNA alkylation at w794 high affinity site,[5],1.0 ×
COc1ccc2c(c1)C13CC1CN(C(=O)c1cc4cc(OC)c(OC)c(OC)c4[nH]1)C3=CC2=O (stereo not shown) [MCBI-TMI],relative rate of DNA alkylation at w794 high affinity site,[5],1.9 ×
"COC(=O)c1cc2c3c(ccc2[nH]1)N(C(=O)c1cc2c4c(ccc2[nH]1)N(C(=O)c1cc2c([nH]1)C(=O)C=C1N(C(=O)OC(C)(C)C)CC5CC125)CC4)CC3 (stereo not shown) [compound 20, 6-[7-[Methyl 1,2-Dihydro-(3H-pyrrolo[3,2-e]indole-3-yl)carbonyl-7-carboxylate]1,2-dihydro-(3H-pyrrolo[3,2-e]indole-3-yl)carbonyl]-2-((tert-butyloxy)carbonyl)-1,2,8,8a-tetrahydrocyclopropa[c]pyrrolo[3,2-e]indol-4-one]",alkylated adenines within six-base A-rich sequence of w836 DNA,[4],the natural enantiomer of 20 alkylated the same sites as ent-(-)-DSA-CDPI2 while the unnatural enantiomer of 20 alkylated the same sites as the natural enantiomer (+)-DSA-CDPI2
same,time required to reach a detectable and diminished level of DNA alkylation,"[4]; 5×10^-6 M agent (so in the source), 25° C., both enantiomers",72 h
same,more potent cytotoxicity than simple derivatives N--BOC-DSA (4) and N--Ac-DSA,[6]; natural enantiomers,less than 10 ×
same,cytotoxic potency of the two enantiomers compared,[6]; natural versus unnatural enantiomer,nearly equipotent
"COC(=O)c1cc2cc(NC(=O)c3cc4cc(NC(=O)c5cc6c([nH]5)C(=O)C=C5N(C(C)=O)CC7CC567)ccc4[nH]3)ccc2[nH]1 (stereo not shown) [compound 23, N-{2-[N-(2-Methoxycarbonyl-1H-indol-5-yl)]carbamoyl-1H-indol-5-yl}-2-acetyl-1,2,8,8a-tetrahydrocyclopropa[c]pyrrolo[3,2-e]indole4-one-6-carboxamide]",comparison of DNA alkylation selectivity,[3],no differences in their DNA alkylation selectivity
same,less efficient at alkylating DNA than DSA-indole2,[3],ca. 100 ×
same,more efficient DNA alkylation than the BOC derivative 18,[3],2-5 ×
same,slower DNA alkylation than DSA-indole2,[3],ca. 1000 ×
same,unnatural enantiomer less effective at DNA alkylation than natural enantiomer,[3],approximately 10 ×
same,"cytotoxic potency, effect of terminal N^2 substituent (18, 23, 24 compared)",[6],essentially indistinguishable
same,cytotoxic potency compared with simple derivatives N--BOC-DSA (4) and N--Ac-DSA,[6]; natural enantiomers,essentially indistinguishable
COC(=O)c1cc2cc(NC(=O)c3cc4cc(NC(=O)c5cc6c([nH]5)C(=O)C=C5NCC7CC567)ccc4[nH]3)ccc2[nH]1 (stereo not shown) [compound 24],DNA alkylation efficiency relative to 18,[3],about an order of magnitude less efficient
same,comparison of DNA alkylation selectivity,[3],no differences in their DNA alkylation selectivity
same,less efficient at alkylating DNA than DSA-indole2,[3],ca. 100 ×
same,slower DNA alkylation than DSA-indole2,[3],ca. 1000 ×
same,unnatural enantiomer less effective at DNA alkylation than natural enantiomer,[3],approximately 10 ×
same,"cytotoxic potency, effect of terminal N^2 substituent (18, 23, 24 compared)",[6],noticeably less potent
COC(=O)c1cc2c3c(ccc2[nH]1)N(C(=O)c1cc2c([nH]1)C(=O)C=C1N(C(=O)c4cc5c6c(ccc5[nH]4)N(C(N)=O)CC6)CC4CC124)CC3 (stereo not shown) [compound 30],AT-rich adenine N3 alkylation selectivity (size of site),[3],5 base-pair
same,time after which extensive DNA alkylation is exhibited,[4]; [8],1 to 5 min
same,cytotoxic potency compared with typical agents,[6],essentially equipotent with the typical agents
"COc1c(O)c2c(c3cc(C(=O)N4CCc5c4c(O)c(OC)c4[nH]c(C(=O)N6CC7CC78C6=CC(=O)c6[nH]cc(C)c68)cc54)[nH]c13)CCN2C(N)=O (stereo not drawn) [ent-(-)-CC-1065, reference compound]",AT-rich adenine N3 alkylation selectivity (size of site),[3],5 base-pair
same,high affinity alkylation site in w794 DNA,[1],5'-AATTT
COC(=O)c1cc2c3c(ccc2[nH]1)N(C(=O)c1cc2c4c(ccc2[nH]1)N(C(=O)c1cc2c([nH]1)C(=O)C=C1N(C(=O)OC(C)(C)C)C[C@@H]5C[C@@]125)CC4)CC3 [ent-(-)-CDPI2 -DSA],AT-rich adenine N3 alkylation selectivity (size of site),[3],5 base-pair
same,alkylation of individual three-base sequences,[3],under represented alkylation of 5'-ATA
same,sequence preference at the alkylation site,[3],5'-AAA>5'-TAA>5'-TTA>5'-ATA
same,high affinity alkylation site in w794 DNA,[1],5'-AATTA
